Values of other authors, collected in patent publication US11873519B2, “Composition for preventing age-related metabolic and tissue degenerative changes” (priority 2017, dated 2024).

Tested on: Ewing's sarcoma PDOX

## L-methionine α-deamino-γ-mercaptomethane lyase [rMETase]
  Serum and tumor MET levels versus controls: lower
  Tumor growth compared to untreated control mice: effectively reduced tumor growth
